# Measurements published in patent publication US12338218B2, “Crystal form of benzimidazole-2-one compound, solvate thereof, crystal form of solvate thereof, and preparation method thereof” (MEDSHINE DISCOVERY INC., priority 2019, dated 2025).
# Where two headings read alike, the source gives them in different places.
# Legend:
# Assay type in all cases: physicochemical
# [1] = Hygroscopicity of crystal form A (dynamic vapor sorption)
# Description: SEM Advantage-1 Dynamic Vapor Sorption Apparatus.
# 10-30 mg of crystal form A of compound 1 was weighed and placed in a DVS sample pan for assaying.
# [2] = Stability assay of crystal form A in different solvents (XRPD after 2 weeks)
# Description: 17 aliquots of crystal form A of compound 1 were weighed (about 15 mg per aliquot), and an appropriate amount of a single or mixed solvent in the Table below was added, respectively. The suspension was stirred at room temperature or 50° C. for 2 weeks. Solids were collected by centrifugation, and detected by XRPD for the crystal form status.
# [3] = Solid stability assay at high temperature, high humidity and strong light
# Description: Method for Determining Content Disclosed Herein
# Instrument model: Agilent 1260 high performance liquid chromatograph
# Detailed parameters of chromatographic conditions were as follows:
# Column temperature: 35° C.
# Detection wavelength: 230 nm
# Mobile phase A: 0.04% aqueous trifluoroacetic acid solution (V/V)
# Mobile phase B: 100% acetonitrile
# Diluent: acetonitrile: pure water=50:50 (V/V)
# Probe Wash: acetonitrile: pure water=50:50 (V/V)
# Gradient elution program: […]
# According to “Guidelines for Stability Assay of APIs and Preparations” (Chinese Pharmacopoeia 2015 Edition, Volume IV, General Principles 9001), crystal form A of compound 1 was assayed for stability at high temperature (60° C., open), high humidity (room temperature/92.5% relative humidity, open) and strong light (5000±500 Lux, 90 μw/cm^2, sealed).
# 1.5 g of crystal form A of compound 1 was weighed, placed in an open watch glass, and spread into a thin layer. The samples placed under high temperature and high humidity conditions were placed in a desiccator for inspection, and samples were taken on the 5th, 10th, and 30th days for assaying. The assay results were compared with the initial assay results on day 0. The samples placed under strong light condition were covered with a quartz glass cover, and samples were taken on the 5th and 10th days for assaying. The assay results were compared with the initial assay results on day 0.
# [4] = Solid stability assay under accelerated condition (40° C./75% relative humidity, sealed)
# Description: According to “Guidelines for Stability Assay of APIs and Preparations” (Chinese Pharmacopoeia 2015 Edition, Volume IV, General Principles 9001), crystal form A of compound 1 was assayed for stability under accelerated condition of high temperature and high humidity (40° C./75% relative humidity, sealed).
# (§1) 1.5 g of crystal form A of compound 1 was weighed and placed in a double-layer low-density polyethylene bag. Each layer of low-density polyethylene bag was sealed by buckling, respectively, and then the double-layer low-density polyethylene bag was placed in an aluminum foil bag and heat-sealed. Samples were taken on the 1st, 2nd, 3rd and 6th months for assaying, and the assay results were compared with the initial assay results on day 0.
# [5] = Solid stability assay under long-term condition (25° C./60% relative humidity, sealed)
# Description: According to “Guidelines for Stability Assay of APIs and Preparations” (Chinese Pharmacopoeia 2015 Edition, Volume IV, General Principles 9001), crystal form A of compound 1 was assayed for stability under long-term condition (25° C./60% relative humidity, sealed).
# as §1, with “the” for “the 1st, 2nd,”
# [6] = High humidity (room temperature/92.5% relative humidity, open), Day 5
# [7] = High humidity (room temperature/92.5% relative humidity, open), Day 10
# [8] = High humidity (room temperature/92.5% relative humidity, open), Day 30
# [9] = High temperature (60° C., open), Day 5
# [10] = High temperature (60° C., open), Day 10
# [11] = High temperature (60° C., open), Day 30
# [12] = Strong light (5000 ± 500 Lux, 90 μw/cm^2, sealed), Day 5
# [13] = Strong light (5000 ± 500 Lux, 90 μw/cm^2, sealed), Day 10
# [14] = 40° C./75% relative humidity, sealed, Month 1
# [15] = 40° C./75% relative humidity, sealed, Month 2
# [16] = 40° C./75% relative humidity, sealed, Month 3
# [17] = 40° C./75% relative humidity, sealed, Month 6
# [18] = 25° C./60% relative humidity, sealed, Month 3
# [19] = 25° C./60% relative humidity, sealed, Month 6
structure (smiles),measurement,setting,value
CCOc1cc([C@@H](CS(C)(=O)=O)n2c(=O)[nH]c3cc(F)ccc32)ccc1OC [crystal form A of compound 1],hygroscopicity (in words),[1],low hygroscopicity
same,hygroscopic weight gain (ΔW),"[1]; DVS, 25° C. and 80% RH",0.05%
same,hygroscopicity (in words),[1]; listed as Crystal form A of compound 1,no or almost no hygroscopicity
same,Status (after 2 weeks),"[2]; 1,4-Dioxane:n-heptane (1:1), 50° C.",Suspension
same,Status (after 2 weeks),"[2]; 2-Butanol:m-xylene (2:1), 50° C.",Suspension
same,Status (after 2 weeks),"[2]; 2-Methyltetrahydrofuran:n-octane (4:1), 50° C.",Suspension
same,Status (after 2 weeks),"[2]; Acetone:toluene (2:1), room temperature",Suspension
same,Status (after 2 weeks),"[2]; Acetonitrile:water (3:1), room temperature",Suspension
same,Status (after 2 weeks),"[2]; Dichloromethane:m-xylene (1:1), room temperature",Suspension
same,Status (after 2 weeks),"[2]; Dimethyl sulfoxide:water (2:1), 50° C.",Suspension
same,Status (after 2 weeks),"[2]; Ethanol:water (3:1), 50° C.",Suspension
same,Status (after 2 weeks),"[2]; Ethyl acetate:m-xylene (2:1), room temperature",Suspension
same,Status (after 2 weeks),"[2]; Isopropanol:water (85:5), room temperature",Suspension
same,Status (after 2 weeks),"[2]; Isopropanol:water (92:8), room temperature",Suspension
same,Status (after 2 weeks),"[2]; Isopropanol:water (95:5), room temperature",Suspension
same,Status (after 2 weeks),"[2]; Isopropanol:water (98:2), room temperature",Suspension
same,Status (after 2 weeks),"[2]; Methyl isobutyl ketone:n-hexane (2:1), 50° C.",Suspension
same,Status (after 2 weeks),"[2]; Methyl tert-butyl ether, room temperature",Suspension
same,Status (after 2 weeks),"[2]; Toluene, room temperature",Suspension
same,Status (after 2 weeks),"[2]; Water, room temperature",Suspension
same,stability in solvents (in words),"[2]; methyl tert-butyl ether, toluene, water, mixed solvent of alcohol and water",good stability
same,Appearance,[3]; Day 0,White
same,Content,[3]; Day 0,99.5%
same,Total impurity,[3]; Day 0,0.33%
same,Appearance,[3]; [6],White
same,Content,[3]; [6],101.1%
same,Total impurity,[3]; [6],0.32%
same,Appearance,[3]; [7],White
same,Content,[3]; [7],100.3%
same,Total impurity,[3]; [7],0.32%
same,Appearance,[3]; [8],White
same,Content,[3]; [8],99.5%
same,Total impurity,[3]; [8],0.33%
same,Appearance,[3]; [9],White
same,Content,[3]; [9],101.3%
same,Total impurity,[3]; [9],0.32%
same,Appearance,[3]; [10],White
same,Content,[3]; [10],100.3%
same,Total impurity,[3]; [10],0.32%
same,Appearance,[3]; [11],White
same,Content,[3]; [11],99.2%
same,Total impurity,[3]; [11],0.33%
same,Appearance,[3]; [12],White
same,Content,[3]; [12],100.4%
same,Total impurity,[3]; [12],0.33%
same,Appearance,[3]; [13],White
same,Content,[3]; [13],100.7%
same,Total impurity,[3]; [13],0.33%
same,solid stability (in words),"[3]; high temperature, high humidity, or strong light condition",good stability
same,Appearance,[4]; [14],White
same,Content,[4]; [14],99.5%
same,Total impurity,[4]; [14],0.32%
same,Appearance,[4]; [15],White
same,Content,[4]; [15],99.4%
same,Total impurity,[4]; [15],0.33%
same,Appearance,[4]; [16],White
same,Content,[4]; [16],99.2%
same,Total impurity,[4]; [16],0.33%
same,Appearance,[4]; [17],White
same,Content,[4]; [17],99.5%
same,Total impurity,[4]; [17],0.33%
same,Appearance,[4]; Day 0,White
same,Content,[4]; Day 0,99.5%
same,Total impurity,[4]; Day 0,0.33%
same,solid stability (in words),[4]; accelerated condition of 40° C./75% relative humidity,good stability
same,Appearance,[5]; [18],White
same,Content,[5]; [18],99.0%
same,Total impurity,[5]; [18],0.34%
same,Appearance,[5]; [19],White
same,Content,[5]; [19],99.5%
same,Total impurity,[5]; [19],0.33%
same,Appearance,[5]; Day 0,White
same,Content,[5]; Day 0,99.5%
same,Total impurity,[5]; Day 0,0.33%
same,solid stability (in words),[5]; long-term condition of 25° C./60% relative humidity,good stability
